US12193460B2, “Highly soluble steviol glycosides” (PureCircle USA Inc., priority 2016, dated 2025)
Read-outs that look alike come from different tables or passages of the source. Blank lines part the entries; values can stand above or below the compound they belong to.

Key:
[1] = Prakash et al., 2008, cited from earlier work
[2] = cited from earlier work; for Rate of dissolution in H2O at 25° C.: grade in words
[3] = room temperature (25° C.); related art; cited from earlier work
[4] = Water solubility in RO water at room temperature (25° C.); assay type: physicochemical; conditions: g per 100 g solvent
Description: Hereinafter, unless specified otherwise, the solubility of material is determined in RO (reverse osmosis) water at room temperature (25° C.). Where the solubility is expressed as “%” it to be understood as number of grams of material soluble in 100 grams of solvent.
The material is deemed soluble at certain concentration if the produced solution has <10 FAU (Formazin Attenuation Unit) turbidity value.

Structure (SMILES): C=C1C[C@@]23CC[C@H]4[C@@](C)(CCC[C@@]4(C)C(=O)O[C@@H]4O[C@H](CO)[C@@H](O)[C@H](O)[C@H]4O)[C@@H]2CC[C@]1(O[C@@H]1O[C@H](CO)[C@@H](O)[C@H](O[C@@H]2O[C@H](CO)[C@@H](O)[C@H](O)[C@H]2O)[C@H]1O[C@@H]1O[C@H](CO)[C@@H](O)[C@H](O)[C@H]1O)C3 [Form 1, Rebaudioside A]
- solubility (in words) ([1]; listed as hydrate form of Rebaudioside A): lowest solubility
- Rate of dissolution in H2O at 25° C. [2]: Very low
- Rate of dissolution in H2O at 25° C. (% dissolved) ([2]; in 60 minutes): (<0.2% in 60

Structure (SMILES): C=C1C[C@@]23CC[C@H]4[C@@](C)(CCC[C@@]4(C)C(=O)O[C@@H]4O[C@H](CO)[C@@H](O)[C@H](O)[C@H]4O)[C@@H]2CC[C@]1(O[C@@H]1O[C@H](CO)[C@@H](O)[C@H](O[C@@H]2O[C@H](CO)[C@@H](O)[C@H](O)[C@H]2O)[C@H]1O[C@@H]1O[C@H](CO)[C@@H](O)[C@H](O)[C@H]1O)C3 [Form 2, Rebaudioside A]
- Rate of dissolution in H2O at 25° C. [2]: Intermediate
- Rate of dissolution in H2O at 25° C. (% dissolved) ([2]; in 5 minutes): (<30% in 5

Structure (SMILES): C=C1C[C@@]23CC[C@H]4[C@@](C)(CCC[C@@]4(C)C(=O)O[C@@H]4O[C@H](CO)[C@@H](O)[C@H](O)[C@H]4O)[C@@H]2CC[C@]1(O[C@@H]1O[C@H](CO)[C@@H](O)[C@H](O[C@@H]2O[C@H](CO)[C@@H](O)[C@H](O)[C@H]2O)[C@H]1O[C@@H]1O[C@H](CO)[C@@H](O)[C@H](O)[C@H]1O)C3 [Form 3, Rebaudioside A]
- Rate of dissolution in H2O at 25° C. [2]: High
- Rate of dissolution in H2O at 25° C. (% dissolved) ([2]; in 5 minutes): > 30%

Structure (SMILES): C=C1C[C@@]23CC[C@H]4[C@@](C)(CCC[C@@]4(C)C(=O)O[C@@H]4O[C@H](CO)[C@@H](O)[C@H](O)[C@H]4O)[C@@H]2CC[C@]1(O[C@@H]1O[C@H](CO)[C@@H](O)[C@H](O[C@@H]2O[C@H](CO)[C@@H](O)[C@H](O)[C@H]2O)[C@H]1O[C@@H]1O[C@H](CO)[C@@H](O)[C@H](O)[C@H]1O)C3 [Form 4, Rebaudioside A]
- solubility (in words) ([1]; listed as rebaudioside A amorphous forms): high solubility
- Rate of dissolution in H2O at 25° C. [2]: High
- Rate of dissolution in H2O at 25° C. (% dissolved) ([2]; in 5 minutes): > 35%

Structure (SMILES): C=C1C[C@@]23CC[C@H]4[C@@](C)(CCC[C@@]4(C)C(=O)O[C@@H]4O[C@H](CO)[C@@H](O)[C@H](O)[C@H]4O[C@@H]4O[C@H](CO)[C@@H](O)[C@H](O)[C@H]4O)[C@@H]2CC[C@]1(O[C@@H]1O[C@H](CO)[C@@H](O)[C@H](O[C@@H]2O[C@H](CO)[C@@H](O)[C@H](O)[C@H]2O)[C@H]1O[C@@H]1O[C@H](CO)[C@@H](O)[C@H](O)[C@H]1O)C3 [Rebaudioside D]
- water solubility [3]: less than 0.05%

- solubility in water ([4]; listed as Crystalline Rebaudioside M): 0%-0.1
Structure (SMILES): C=C1C[C@@]23CC[C@H]4[C@@](C)(CCC[C@@]4(C)C(=O)O[C@@H]4O[C@H](CO)[C@@H](O)[C@H](O[C@@H]5O[C@H](CO)[C@@H](O)[C@H](O)[C@H]5O)[C@H]4O[C@@H]4O[C@H](CO)[C@@H](O)[C@H](O)[C@H]4O)[C@@H]2CC[C@]1(O[C@@H]1O[C@H](CO)[C@@H](O)[C@H](O[C@@H]2O[C@H](CO)[C@@H](O)[C@H](O)[C@H]2O)[C@H]1O[C@@H]1O[C@H](CO)[C@@H](O)[C@H](O)[C@H]1O)C3 [Rebaudioside M]
- water solubility [3]: about 0.1%

- solubility in water [4]: 2%
Structure (SMILES): C=C1C[C@@]23CC[C@H]4[C@@](C)(CCC[C@@]4(C)C(=O)O[C@@H]4O[C@H](CO)[C@@H](O)[C@H](O[C@@H]5O[C@H](CO)[C@@H](O)[C@H](O)[C@H]5O)[C@H]4O[C@@H]4O[C@H](CO)[C@@H](O)[C@H](O)[C@H]4O)[C@@H]2CC[C@]1(O[C@@H]1O[C@H](CO)[C@@H](O)[C@H](O[C@@H]2O[C@H](CO)[C@@H](O)[C@H](O)[C@H]2O)[C@H]1O[C@@H]1O[C@H](CO)[C@@H](O)[C@H](O)[C@H]1O)C3 [rebaudioside M]
